PMC8509428, “The Phenoxyalkyltriazine Antagonists for 5-HT6 Receptor with Promising Procognitive and Pharmacokinetic Properties In Vivo in Search for a Novel Therapeutic Approach to Dementia Diseases” (International Journal of Molecular Sciences, 2021)
Several values for one entry are separate records, joined by “and”; a condition that tells them apart may be missing. Equal entries are not always repeated. Where two headings read alike, the source gives them in different places.

Assays:
[1] = Metabolic stability in rat liver microsomes; type: in vitro ADME
Experimental: The tested 5-HT6R ligands (50 µM) were incubated in the presence of RLMs (1 mg/mL) in 10 mM Tris–HCl buffer (37 °C). The LC/MS analyses with additional MS ion fragmentation of the products and substrates were performed to determine the most probable structures of 5-HT6R ligands’ metabolites. LC/MS Waters ACQUITY™ TQD system with the TQ Detector (Waters, Milford, CT, USA).

[2] = system: Salmonella Typhimurium TA100; type: cell-based
Source text: The used Salmonella Typhimurium TA100 strain has base pair substitution (hisG46 mutation, which target is GGG). […] The occurrence of revertants was visualized by pH indicator dye which was present in the bacterial medium.

[3] = Pharmacokinetics and tissue distribution in rats; type: in vivo, rat; details: for Kp: intraperitoneal
Experimental: To assess pharmacokinetic profile and tissue penetration of 2 and 3, the male Wistar rats were a single intraperitoneal (i.p.) injected with these compounds dissolved in tween (vehicle volume 1 mL/kg) at a dose of 0.3 mg/kg, determined in behavioral studies. The animals were killed by decapitation under deep anesthesia (i.p. injection of 50 mg/kg ketamine and 7.5 mg/kg xylazine) at 5, 15, 30, 60, 120 and 240 min after compounds administration (four animals per time point) and blood samples (approximately 5–6 mL) were collected into tubes. Moreover, five tissues (i.e., brain, heart, lungs, kidneys and liver) were harvested, rinsed with cold saline, and the wet weights determined. Blood was allowed to clot for 15–20 min at room temperature and then centrifuged (3000 rpm for 10 min). The obtained serum and tissues were stored frozen at −80 °C until analysis.
The concentrations of both test compounds in serum and tissue homogenates were measured by a reverse-phase high-performance liquid chromatography method with ultraviolet detection (HPLC/UV). […] The mobile phase consisted of methanol/10 mM potassium dihydrogen phosphate buffer, pH 4.6/acetonitrile (51/40/9, v/v/v). The isocratic separation was performed at 1.0 mL/min constant flow-rate with column temperature maintained at 38 °C. The detection wavelength was set at 206 nm for 2 and at 215 nm for 3. […] EZChrome Elite v. 3.3.2 software (VWR, Darmstadt, Germany) was used for data acquisition.
Before analysis, tissue samples were thawed, placed in four volumes (w/v) of phosphate-buffered saline (PBS, pH 7.4) and homogenized using a MICCRA D-1 homogenizer (ART Prozess- & Labortechnik GmbH & Co., Heitersheim, Germany). To isolate 2 or 3, 500 µL of rat serum or tissue homogenate containing this compound were mixed with a 20-μL volume of IS solution (50 ng/mL or 200 ng/g in methanol). As an IS for compound 2 quantification, compound 3 was used and vice versa.
The samples were alkalized with 50 μL of 4 M sodium hydroxide solution, vortex-mixed, and extracted with 1 mL of ethyl acetate/hexane (30/70, v/v) mixture on a shaker (VXR Vibrax, IKA, Legnica, Poland) for 20 min. After centrifugation (Eppendorf, Mini Spin Plus, Hamburg, Germany), the organic layers were transferred into new tubes containing 100 μL of methanol and 0.1 M sulfuric acid (10/90, v/v) mixture. Then, the samples were shaken and centrifuged again. Finally, 20–90 μL of each acidic layer was injected into the HPLC system.
Other pharmacokinetic parameters were determined on subjecting the concentration–time data to non-compartmental analysis using Phoenix WinNonlin 8.2 software (Pharsight Corporation, a Certara Company, Princeton, NJ, USA).

rats [4] = experiment: Forced swim test (FST); type: in vivo, rat; details: for Immobility Time: 60 min before test, mean ± SEM
Experimental: The experiment was carried out according to the method of [54]. On the first day of the experiment, the animals were gently individually placed in Plexiglas cylinders (40 cm high, 18 cm in diameter) containing 15 cm of water maintained at 23–25 °C for 15 min. On removal from water, the rats were placed for 30 min in a Plexiglas box under 60-W bulb to dry. On the following day (24 h later), the rats were replaced in the cylinder and the total duration of immobility was recorded during the whole 5-min test period. The immobility was assigned when no additional activity was observed other than that necessary to keep the rat’s head above the water. Fresh water was used for each animal.

rats [5] = experiment: Exploratory activity measured in the EPM test; type: in vivo, rat; details: mean ± SEM
Experimental: The experiment was performed using an EPM apparatus (details see above). Total ambulation (the total distance covered by a rat, and ambulation along X and Y axis) was taken to discern drug effects on general activity from those on open-arm exploration, during a 5-min test period (i.e., the time equal to the observation period in the EPM test). Rats’ behavior was not videotaped during the test.

5-HT7R = details: ± SD; read-out: Ki 5-HT7 (converted); cited from earlier work
[6] = target: human serotonin 5-HT6 receptor (Homo sapiens, UniProt P50406); experiment: Functional assay for 5-HT6 receptor (cAMP, 1321N1 cells)
[7] = estimated from MS spectra supported by in silico data
[8] = rat serum, 0.3 mg/kg i.p., 0.3 mg/kg

human serotonin 5-HT6 receptor, sequence (P50406 whole entry): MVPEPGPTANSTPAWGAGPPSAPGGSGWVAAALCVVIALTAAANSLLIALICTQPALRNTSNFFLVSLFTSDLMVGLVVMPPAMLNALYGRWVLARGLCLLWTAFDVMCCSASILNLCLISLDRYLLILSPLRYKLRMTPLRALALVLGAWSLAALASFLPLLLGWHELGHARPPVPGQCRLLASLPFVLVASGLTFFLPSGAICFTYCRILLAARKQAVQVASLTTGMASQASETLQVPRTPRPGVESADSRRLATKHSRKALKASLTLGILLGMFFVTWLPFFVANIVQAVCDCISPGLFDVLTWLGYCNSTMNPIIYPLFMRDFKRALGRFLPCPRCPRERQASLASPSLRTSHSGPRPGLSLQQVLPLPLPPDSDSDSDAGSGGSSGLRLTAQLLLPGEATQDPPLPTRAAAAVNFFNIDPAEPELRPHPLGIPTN

**Q.** For CCC(Oc1ccccc1)c1nc(N)nc(N2CCN(C)CC2)n1 (racemic) [Compound 3, (RS)-4-(4-methylpiperazin-1-yl)-6-(1-phenoxypropyl)-1,3,5-triazin-2-amine], which “parent compound remaining in the reaction mixture (Area%)” value ([1]; RLMs, 120 min incubation) is on record?
**A.** 95.7%

**Q.** What about the “Metabolic Pathway, metabolite M1” value [1, 7] of the same molecule?
**A.** decomposition and triple hydroxylation

**Q.** What about the “Metabolic Pathway, metabolite M2” value [1, 7] of the same molecule?
**A.** hydroxylation

**Q.** What about the “Binomial B-Value” ([2]; 1 µM) of the same molecule?
**A.** 0.0001

**Q.** And the “Number of Revertants ± SD” value ([2]; 1 µM)?
**A.** 0.33 ± 0.58

**Q.** And the “Binomial B-Value” ([2]; 10 µM)?
**A.** 0.0324

**Q.** And the “Number of Revertants ± SD” value ([2]; 10 µM)?
**A.** 1.67 ± 1.53

**Q.** And the “Kp, brain” value ([3]; AUC0-t tissue / AUC0-t serum)?
**A.** 2.03

**Q.** What about the “Kp, liver” value ([3]; AUC0-t tissue / AUC0-t serum) of the same molecule?
**A.** 10.54

**Q.** And the MRT ([3]; male, Wistar, ip, rat serum, 0.3 mg/kg i.p.)?
**A.** 79.3 min

**Q.** What about the Kp ([3]; male, Wistar, rat, brain (vs serum), 0.3 mg/kg, AUC0-t tissue / AUC0-t serum, read-out: Kp, brain) of the same molecule?
**A.** 2.63

**Q.** What about the Tmax ([3]; male, Wistar, rat, brain, ip, 0.3 mg/kg, rat, 0.3 mg/kg i.p., read-out: Tmax, brain (converted)) of the same molecule?
**A.** 5 min

**Q.** What about the half-life ([3]; male, Wistar, rat, brain, ip, 0.3 mg/kg, rat, 0.3 mg/kg i.p., read-out: elimination half-life, brain tissue) of the same molecule?
**A.** 112 min

**Q.** What about the Kp ([3]; male, Wistar, rat, heart / serum, 0.3 mg/kg, AUC0-t tissue / AUC0-t serum, read-out: Kp, heart) of the same molecule?
**A.** 2.49

**Q.** And the Tmax ([3]; male, Wistar, rat, heart, ip, 0.3 mg/kg, rat, 0.3 mg/kg i.p., read-out: Tmax, heart (converted))?
**A.** 5 min

**Q.** And the Kp ([3]; male, Wistar, rat, kidneys (vs serum), 0.3 mg/kg, AUC0-t tissue / AUC0-t serum, read-out: Kp, kidneys)?
**A.** 6.03

**Q.** What about the Tmax ([3]; male, Wistar, rat, kidneys, ip, 0.3 mg/kg, rat, 0.3 mg/kg i.p., read-out: Tmax, kidneys (converted)) of the same molecule?
**A.** 15 min

**Q.** What about the Kp ([3]; male, Wistar, rat, liver (vs serum), 0.3 mg/kg, AUC0-t tissue / AUC0-t serum, read-out: Kp, liver) of the same molecule?
**A.** 10.5

**Q.** What about the Tmax ([3]; male, Wistar, rat, liver, ip, 0.3 mg/kg, rat, 0.3 mg/kg i.p., read-out: Tmax, liver (converted)) of the same molecule?
**A.** 5 min

**Q.** What about the Kp ([3]; male, Wistar, rat, lungs / serum, 0.3 mg/kg, AUC0-t tissue / AUC0-t serum, read-out: Kp, lungs) of the same molecule?
**A.** 6.41

**Q.** What about the Tmax ([3]; male, Wistar, rat, lungs, ip, 0.3 mg/kg, rat, 0.3 mg/kg i.p., read-out: Tmax, lungs (converted)) of the same molecule?
**A.** 5 min

**Q.** And the CL/F ([3]; male, Wistar, rat, serum, ip, 0.3 mg/kg, rat serum, 0.3 mg/kg i.p., read-out: CL/F (converted))?
**A.** 587 mL/min/kg

**Q.** What about the Tmax ([3]; male, Wistar, rat, serum, ip, 0.3 mg/kg, rat, 0.3 mg/kg i.p., read-out: Tmax, serum (converted)) of the same molecule?
**A.** 5 min

**Q.** And the half-life ([3]; male, Wistar, rat, serum, ip, 0.3 mg/kg, rat, 0.3 mg/kg i.p., read-out: t1/2λz, serum)?
**A.** 76.7 min

**Q.** And the Cmax ([3]; male, Wistar, serum, ip, rat, 0.3 mg/kg i.p., mean ± SD)?
**A.** 6.32 ± 5.03 ng/mL

**Q.** What about the AUC(0-t) ([3]; male, Wistar, serum, ip, rat, 0.3 mg/kg i.p., mean ± SD, read-out: AUC0-t, serum (converted)) of the same molecule?
**A.** 7.07 ng·h/mL

**Q.** What about the AUC(0-inf) ([3]; male, Wistar, serum, ip, rat, 0.3 mg/kg i.p., mean ± SD, read-out: AUC0-∞, serum (converted)) of the same molecule?
**A.** 8.53 ng·h/mL

**Q.** And the CL/F [3, 8]?
**A.** 586 ± 298.7 mL/min/kg

**Q.** And the Vz/F [3, 8]?
**A.** 65 L/kg and 64.81 ± 21.78 L/kg

**Q.** What about the “AUC0-t, heart” value ([3]; rat, 0.3 mg/kg i.p.) of the same molecule?
**A.** 1057.37 ± 285.41 ng·min/mL or ng·min/g

**Q.** And the “AUC0-t, kidneys” value ([3]; rat, 0.3 mg/kg i.p.)?
**A.** 2557.08 ± 1084.42 ng·min/mL or ng·min/g

**Q.** And the “AUC0-t, lungs” value ([3]; rat, 0.3 mg/kg i.p.)?
**A.** 2715.09 ± 1000.42 ng·min/mL or ng·min/g

**Q.** What about the “Cmax, heart” value ([3]; rat, 0.3 mg/kg i.p.) of the same molecule?
**A.** 21.83 ± 17.16 ng/mL or ng/g

**Q.** What about the “Cmax, kidneys” value ([3]; rat, 0.3 mg/kg i.p.) of the same molecule?
**A.** 41.25 ± 8.41 ng/mL or ng/g

**Q.** What about the “Cmax, liver” value ([3]; rat, 0.3 mg/kg i.p.) of the same molecule?
**A.** 129.62 ± 106.23 ng/mL or ng/g

**Q.** And the “Cmax, lungs” value ([3]; rat, 0.3 mg/kg i.p.)?
**A.** 73.65 ± 63.94 ng/mL or ng/g

**Q.** And the “AUC0-t, brain” value ([3]; rat, 0.3 mg/kg i.p., 0.3 mg/kg)?
**A.** 859.1 ng·min/mL or ng·min/g and 859.08 ± 312.87 ng·min/mL or ng·min/g

**Q.** And the “AUC0-t, liver” value ([3]; rat, 0.3 mg/kg i.p., 0.3 mg/kg)?
**A.** 4467.2 ng·min/mL or ng·min/g and 4467.18 ± 2249.99 ng·min/mL or ng·min/g

**Q.** And the “Cmax, brain” value ([3]; rat, 0.3 mg/kg i.p., 0.3 mg/kg)?
**A.** 11.35 ± 6.93 ng/mL or ng/g

**Q.** What about the “t1/2λz, serum” value ([3]; rat, 0.3 mg/kg i.p., 0.3 mg/kg) of the same molecule?
**A.** 77 min and 76.65 ± 18.07 min

**Q.** And the “Immobility Time” value (rats [4]; 1 mg/kg i.p.)?
**A.** 177.50 ± 6.1 s

**Q.** What about the “decrease of immobility time vs vehicle-treated group” value (rats [4]; 3 mg/kg) of the same molecule?
**A.** about 30%

**Q.** And the “Immobility Time” value (rats [4]; 3 mg/kg i.p.)?
**A.** 159.13 ± 13.3 s

**Q.** What about the “decrease of immobility time vs vehicle-treated group” value (rats [4]; 10 mg/kg) of the same molecule?
**A.** about 36%

**Q.** And the “Immobility Time” value (rats [4]; 10 mg/kg i.p.)?
**A.** 134.63 ± 16.7 s

**Q.** What about the “Total Distance” value (rats [5]; 0.3 mg/kg i.p.) of the same molecule?
**A.** 4033 ± 340 cm

**Q.** What about the “X Ambulation” value (rats [5]; 0.3 mg/kg i.p.) of the same molecule?
**A.** 151 ± 16

**Q.** What about the “Y Ambulation” value (rats [5]; 0.3 mg/kg i.p.) of the same molecule?
**A.** 80 ± 8

**Q.** What about the “Total Distance” value (rats [5]; 1 mg/kg i.p.) of the same molecule?
**A.** 4102 ± 291 cm

**Q.** What about the “X Ambulation” value (rats [5]; 1 mg/kg i.p.) of the same molecule?
**A.** 136 ± 15

**Q.** And the “Y Ambulation” value (rats [5]; 1 mg/kg i.p.)?
**A.** 86 ± 10

**Q.** And the “Total Distance” value (rats [5]; 3 mg/kg i.p.)?
**A.** 3545 ± 136 F(3,22) = 0.9071; NS cm

**Q.** And the “X Ambulation” value (rats [5]; 3 mg/kg i.p.)?
**A.** 123 ± 5 F(3,22) = 0.6336; NS

**Q.** And the “Y Ambulation” value (rats [5]; 3 mg/kg i.p.)?
**A.** 73 ± 5 F(3,22) = 0.3805; NS

**Q.** And the Ki (5-HT7R)?
**A.** 19.9 µM

**Q.** What about the Emax ([6]; 1321-N1, read-out: 5-HT6 Antagonist Mode Emax) of the same molecule?
**A.** 100%

**Q.** And the Emax ([6]; 1321-N1, read-out: 5-HT6R Agonist Mode Emax)?
**A.** 9 ± 1.4%
